Results taken from patent US8148422B2, “Sulfonamides as TRPM8 modulators” (Janssen Pharmaceutica, NV, priority 2008, dated 2012).
Where two headings read alike, the source gives them in different places.

Columns and labels:
canine TRPM8 = molecular target: T1, canine TRPM8 (Canis lupus familiaris, UniProt Q1A7N1); assay: In vitro canine TRPM8 functional assay (Ca2+-sensitive fluorescent dye, FLIPR or FDSS, icilin challenge); type: cell-based; settings: for inhibition at 0.2 µM: 0.2 μM compound
T1 construct: expressed in transfected cells
Outline: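 Canine TRPM8 stably expressed in HEK293; compound added 5 min before icilin challenge (~80% max response), with fluorescent Ca2+ signal tracked throughout.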

[1] = system: icilin-induced "wet-dog" shakes (WDS); assay: Inhibition of icilin-induced "wet-dog" shakes in rats; type: in vivo; settings: HCl salt, 10 mpk PO, vehicle HPbCD; male Sprague Dawley rats; [1-(test compound WDS count/vehicle WDS count)]x100
Protocol: Male Sprague Dawley rats (220-450 g, Charles River Labs, n=6-9/treatment) were used to evaluate the ability of compounds selected from the group consisting of formula (I) and formula (II) to block icilin-induced “wet-dog” shakes (WDS). Compounds selected from the group consisting of formula (I) and formula (II) were administered in an appropriate vehicle, such as hydroxypropyl-β-cyclodextrin (HPβCD), methocellulose, 10% Solutol, or H2O, or the like, by the appropriate route, i.p. or p.o., 30-120 minutes before icilin. Icilin was administered in PEG-400 or 10% solutol/H2O, at 1.0 or 3.0 mg/kg, i.p. and spontaneous “wet-dog” shakes were counted 10-20 minutes post-icilin. Results are presented as a percent inhibition of shakes, which was calculated as [1−(test compound WDS count/vehicle WDS count)]×100.

[2] = HEK293 cells stably expressing canine TRPM8, icilin challenge
[3] = HEK293 cells stably expressing canine TRPM8, icilin at approx. 80% maximal response, eight-point dose-response, single determinations unless otherwise noted, read-out: IC50

T1 sequence (Q1A7N1 1-1104): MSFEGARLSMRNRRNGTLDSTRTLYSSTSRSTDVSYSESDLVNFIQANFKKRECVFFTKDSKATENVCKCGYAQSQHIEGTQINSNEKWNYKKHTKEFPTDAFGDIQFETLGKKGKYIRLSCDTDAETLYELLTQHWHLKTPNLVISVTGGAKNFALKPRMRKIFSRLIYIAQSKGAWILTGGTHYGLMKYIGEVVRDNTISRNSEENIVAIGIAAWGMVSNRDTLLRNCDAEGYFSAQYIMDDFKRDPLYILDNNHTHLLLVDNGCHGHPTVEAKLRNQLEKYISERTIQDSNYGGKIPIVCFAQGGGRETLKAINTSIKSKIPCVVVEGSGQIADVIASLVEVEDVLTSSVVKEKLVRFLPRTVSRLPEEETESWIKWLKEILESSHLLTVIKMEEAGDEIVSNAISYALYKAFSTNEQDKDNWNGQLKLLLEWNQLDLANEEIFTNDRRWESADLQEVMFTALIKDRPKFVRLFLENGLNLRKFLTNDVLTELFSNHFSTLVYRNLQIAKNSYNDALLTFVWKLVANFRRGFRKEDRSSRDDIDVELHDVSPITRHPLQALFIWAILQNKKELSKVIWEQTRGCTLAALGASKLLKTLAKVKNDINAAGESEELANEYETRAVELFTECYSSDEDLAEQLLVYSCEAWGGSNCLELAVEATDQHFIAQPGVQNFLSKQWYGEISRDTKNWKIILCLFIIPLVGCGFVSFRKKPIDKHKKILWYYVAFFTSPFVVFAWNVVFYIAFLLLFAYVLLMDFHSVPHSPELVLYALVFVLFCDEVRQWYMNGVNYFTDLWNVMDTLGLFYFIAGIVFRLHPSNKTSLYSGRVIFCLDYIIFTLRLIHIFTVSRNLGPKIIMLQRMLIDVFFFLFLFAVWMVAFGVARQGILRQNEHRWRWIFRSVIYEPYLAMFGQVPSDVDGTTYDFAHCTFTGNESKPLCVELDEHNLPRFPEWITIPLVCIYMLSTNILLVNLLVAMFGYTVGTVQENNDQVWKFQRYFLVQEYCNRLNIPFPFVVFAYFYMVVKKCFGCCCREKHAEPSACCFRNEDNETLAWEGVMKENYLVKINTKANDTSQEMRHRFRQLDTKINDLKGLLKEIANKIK

Row | inhibition at 0.2 µM (canine TRPM8; [2]) [%] | IC50 (canine TRPM8; [3]) [µM] | IC50 (canine TRPM8) [µM] | IC50 (canine TRPM8; IC50, determination of HCl salt, HEK293 cells stably expressing canine TRPM8, icilin challenge) [µM] | inhibition at 0.2 µM (canine TRPM8; determination of HCl salt) [%] | Compound | % Inhibition (of wet-dog shakes) [1] [%]
1 | 101 | 0.006 | – | – | – | Cc1c(N(Cc2ccc(OC(F)(F)F)cc2)S(=O)(=O)CCN(CC(C)C)CC(C)C)sc2ccccc12 [Cpd 16, N-(3-Methylbenzo[b]thiophen-2-yl)-N-(4-trifluoromethoxy-benzyl)-2-(diisobutylamino)ethylsulfonamide] | 0
2 | 100 | – | 0.029 | 0.026 | 100 | Cc1c(N(Cc2ccc(OC(F)(F)F)cc2)S(=O)(=O)CCN2CCC(c3ccccc3)CC2)sc2ccccc12 [Cpd 25, N-(3-Methylbenzo[b]thiophen-2-yl)-N-(4-trifluoromethoxy-benzyl)-2-(4-phenylpiperidin-1-yl)ethylsulfonamide] | 12.7
3 | 102 | 0.016 | – | – | – | Cc1c(N(Cc2ccc(OC(F)(F)F)cc2)S(=O)(=O)CCN(C)Cc2ccccc2)sc2ccccc12 [Cpd 14, N-(3-Methylbenzo[b]thiophen-2-yl)-N-(4-trifluoromethoxy-benzyl)-2-(benzyl-methylamino)ethylsulfonamide] | 0
4 | 100 | 0.026 | – | – | – | Cc1c(N(Cc2ccc(F)c(F)c2)S(=O)(=O)CCN(CC(C)C)CC(C)C)sc2ccccc12 [Cpd 80, N-(3-Methylbenzo[b]thiophen-2-yl)-N-(3,4-difluoro-benzyl)-2-(di-iso-butylamino)ethylsulfonamide] | 0
5 | 100 | 0.018 | – | – | – | Cc1c(N(CCCCC(F)(F)F)S(=O)(=O)CCN(CC(C)C)CC(C)C)sc2ccccc12 [Cpd 78, N-(3-Methylbenzo[b]thiophen-2-yl)-N-(5,5,5-trifluoro-n-pent-1-yl)-2-(di-iso-butylamino)ethylsulfonamide] | 3
6 | 100 | 0.017 | – | – | – | Cc1c(N(CCC2CC2)S(=O)(=O)CCN(CC(C)C)CC(C)C)sc2ccccc12 [Cpd 74, N-(3-Methylbenzo[b]thiophen-2-yl)-N-(2-cyclopropyl-ethyl)-2-(diisobutylamino)ethylsulfonamide] | 26
7 | 98 | 0.037 | – | – | – | Cc1c(N(CCCCC(F)(F)F)S(=O)(=O)CCN(C)Cc2ccccc2)sc2ccccc12 [Cpd 79, N-(3-Methylbenzo[b]thiophen-2-yl)-N-(5,5,5-trifluoro-n-pent-1-yl)-2-(benzyl-methylamino)ethylsulfonamide] | –
8 | 99 | 0.026 | – | – | – | Cc1c(N(Cc2ccc(OC(F)(F)F)cc2)S(=O)(=O)CCN2CCCCC2)sc2ccccc12 [Cpd 18, N-(3-Methylbenzo[b]thiophen-2-yl)-N-(4-trifluoromethoxy-benzyl)-2-(piperidin-1-yl)ethylsulfonamide] | –
9 | 101 | 0.022 | – | – | – | CCCN(CCC)CCS(=O)(=O)N(Cc1ccc(OC(F)(F)F)cc1)c1sc2ccccc2c1Br [Cpd 5, N-(3-Bromobenzo[b]thiophen-2-yl)-N-(4-trifluoromethoxy-benzyl)-2-(di-propylamino)ethylsulfonamide] | –
10 | 99 | 0.034 | – | – | – | Cc1c(N(Cc2ccc(OC(F)(F)F)cc2)S(=O)(=O)CCN2CCC(C)CC2)sc2ccccc12 [Cpd 19, N-(3-Methylbenzo[b]thiophen-2-yl)-N-(4-trifluoromethoxy-benzyl)-2-(4-methylpiperidin-1-yl)ethylsulfonamide] | –
11 | 58 | – | – | – | – | O=S(=O)(CCN1CCC(c2ccccc2)CC1)N(Cc1ccc(OC(F)(F)F)cc1)c1ccc2ccccc2c1 [Cpd 53, N-(Naphth-2-yl)-N-(4-trifluoromethoxy-benzyl)-2-(4-phenylpiperidin-1-yl)ethylsulfonamide] | –
12 | 99 | 0.016 | – | – | – | CCOC(=O)C1CCN(CCS(=O)(=O)N(Cc2ccc(OC(F)(F)F)cc2)c2sc3ccccc3c2C)CC1 [Cpd 41, N-(3-Methylbenzo[b]thiophen-2-yl)-N-(4-trifluoromethoxy-benzyl)-2-(4-carboethoxypiperidin-1-yl)ethylsulfonamide] | –
13 | 101 | 0.006 | – | – | – | CC(C)CN(CCS(=O)(=O)N(Cc1ccc(OC(F)(F)F)cc1)c1sc2ccccc2c1Br)CC(C)C [Cpd 63, N-(3-Bromobenzo[b]thiophen-2-yl)-N-(4-trifluoromethoxy-benzyl)-2-(di-iso-butylamino)ethylsulfonamide] | –
14 | 83 | 0.051 | – | – | – | CCOC(=O)CNCCS(=O)(=O)N(Cc1ccc(OC(F)(F)F)cc1)c1sc2ccccc2c1C [Cpd 47, N-(3-Methylbenzo[b]thiophen-2-yl)-N-(4-trifluoromethoxy-benzyl)-2-[(carboethoxymethyl)amino]ethylsulfonamide] | –
15 | 97 | 0.044 | – | – | – | Cc1c(N(Cc2ccc(OC(F)(F)F)cc2)S(=O)(=O)CCN2CCC(CO)CC2)sc2ccccc12 [Cpd 23, N-(3-Methylbenzo[b]thiophen-2-yl)-N-(4-trifluoromethoxy-benzyl)-2-(4-hydroxymethylpiperidin-1-yl)ethylsulfonamide] | –
16 | 100 | 0.014 | – | – | – | Cc1c(N(Cc2ccc(OC(F)(F)F)cc2)S(=O)(=O)CCNCC(F)(F)F)sc2ccccc12 [Cpd 60, N-(3-Methylbenzo[b]thiophen-2-yl)-N-(4-trifluoromethoxy-benzyl)-2-(2,2,2-trifluoroethylamino)ethylsulfonamide] | –
17 | 98 | 0.017 | – | – | – | Cc1c(N(Cc2ccc(OC(F)(F)F)cc2)S(=O)(=O)CCN2CCC(F)(F)CC2)sc2ccccc12 [Cpd 42, N-(3-Methylbenzo[b]thiophen-2-yl)-N-(4-trifluoromethoxy-benzyl)-2-(4,4-difluoropiperidin-1-yl)ethylsulfonamide] | –
18 | 100 | 0.004 | – | – | – | Cc1c(N(Cc2ccc(OC(F)(F)F)cc2)S(=O)(=O)CCN2CCC[C@H]2C(F)(F)F)sc2ccccc12 [Cpd 71, N-(3-Methylbenzo[b]thiophen-2-yl)-N-(4-trifluoromethoxy-benzyl)-2-[2(S)-trifluoromethyl-pyrrolidin-1-yl]ethylsulfonamide] | –
19 | 99 | 0.009 | – | – | – | CCCN(CCC)CCS(=O)(=O)N(Cc1ccc(OC(F)(F)F)cc1)c1sc2ccccc2c1C [Cpd 6, N-(3-Methylbenzo[b]thiophen-2-yl)-N-(4-trifluoromethoxy-benzyl)-2-(di-propylamino)ethylsulfonamide] | –
20 | 101 | 0.019 | – | – | – | CCN(CC)CCS(=O)(=O)N(Cc1ccc(OC(F)(F)F)cc1)c1sc2ccccc2c1C [Cpd 9, N-(3-Methylbenzo[b]thiophen-2-yl)-N-(4-trifluoromethoxy-benzyl)-2-(diethylamino)ethylsulfonamide] | –
